# Source: US20240024279A1, “METHODS FOR REDUCING THE WEIGHT LOSS OR INCREASING THE WEIGHT OF A FELINE IN NEED THEREOF” (INCREVET, INC., priority 2019, published 2024)
# “Also recorded” adds a separate entry of the source.
# Key:
# [1] = test system: healthy purpose-bred cats; assay: Urinary glucose excretion in healthy purpose-bred cats after once-daily oral velagliflozin capsules for three days; format: in vivo, cat; conditions: gelatin capsules once a day for three days, urine
# Experimental: Velagliflozin (2-(4-cyclopropylbenzyl)-4-((2S,3R,4R,5S,6R)-3,4,5-trihydroxy-6-(hydroxymethyl)tetrahydro-2H-pyran-2-yl)benzonitrile, CAS number 946525-65-1; Compound 1) can be prepared by a variety of means, including as described in US2015/0164856A1 and is commercially available, for example as catalog number HY-109018 from MedChemExpress. Velagliflozin formulated in gelatin capsules was administered to healthy purpose-bred cats once a day for three days and the urinary glucose excretion recorded over the three consecutive 24-hour periods following dosing. Velagliflozin was administered at three dose levels: 1 mg, 3 mg and 10 mg per cat per day. The mean daily glucose excretion over three days was 2527 mg, 3601 mg and 5256 mg for mean dosages of 0.318 mg/kg, 0.953 mg/kg and 3.071 mg/kg, respectively.
# [2] = test system: client-owned cats diagnosed with diabetes mellitus; assay: Field effectiveness study in client-owned cats with diabetes mellitus; format: in vivo, cat; conditions: diabetic cats, oral once daily, day 0 to day 56, low-carbohydrate diet
# Experimental: In a field effectiveness study, client-owned cats diagnosed with diabetes mellitus based on: i) two separate fasting (>6 h) blood glucose measurements >250 mg dL^−1; ii) glucosuria; iii) fructosamine >25% above the upper limit of normal for the testing laboratory, and iv) one or more of the following: polyuria/polydipsia, polyphagia and/or weight loss (documented in the cat's medical records) can be enrolled. Cats with suspected diabetes mellitus can be evaluated during visit 1 (within 7 days prior to day 0). Eligible cats can be enrolled during visit 2 (day 0) and management can be initiated using velagliflozin administered orally once daily. Cats can be prescribed a low-carbohydrate diet. Cats would return to the clinic for evaluation of glycemic control during visits 3 (day 14±3), 4 (day 28±3), and 5 (day 56±3). […] A cat can be brought back to the clinic at any time for unscheduled visits if such visits are determined to be necessary by the owner or investigator. Eight-hour blood glucose curves (blood samples collected every 2 h±15 min for 8 h) can be conducted at every visit starting with visit 2 (day 0) and blood glucose can be measured using an AlphaTRAK 2 glucometer (Abbott Laboratories). […] A central laboratory would be used to evaluate all clinical pathology samples (blood, serum, and urine) that are not analyzed in the clinic for blood glucose curves. […]
# [3] = test system: obese cats; conditions: velagliflozin group, 1 mg/kg in gelatin capsules, cited from earlier work
# [4] = test system: experimental diabetes in cats; conditions: cats with experimental diabetes, subcutaneous injection of a suspension in olive oil; cited from earlier work
# [5] = test system: experimental diabetes in dogs; conditions: pancreatectomized animals in full glycosuria; cited from earlier work
# [6] = most species; cited from earlier work
Compound,"mean daily glucose excretion over three days ([1]; 1 mg per cat per day, mean dosage 0.318 mg/kg)","mean daily glucose excretion over three days ([1]; 3 mg per cat per day, mean dosage 0.953 mg/kg)","mean daily glucose excretion over three days ([1]; 10 mg per cat per day, mean dosage 3.071 mg/kg)",body weight change [2],"owner-evaluated clinical signs (polydipsia, polyphagia, polyuria) [2]",body weight at end of treatment ([3]; after the course of treatment),food intake at end of treatment ([3]; after the course of treatment),body weight at start of treatment ([3]; before treatment),food intake at start of treatment ([3]; before treatment),effect on hyperglycemia [4],effect on hyperglycemia [5],half-life [6]
"N#Cc1ccc([C@@H]2O[C@H](CO)[C@@H](O)[C@H](O)[C@H]2O)cc1Cc1ccc(C2CC2)cc1 [Velagliflozin, 2-(4-cyclopropylbenzyl)-4-((2S,3R,4R,5S,6R)-3,4,5-trihydroxy-6-(hydroxymethyl)tetrahydro-2H-pyran-2-yl)benzonitrile]",2527 mg,3601 mg,5256 mg,Weight gain and reduction in weight loss; also recorded: increase the average weight of a cat or reduce the weight loss of a cat,"improvement in polydipsia, polyphagia and polyuria",7.0 ± 1.4 kg,58 ± 11 g,7.2 ± 1.5 kg,57 ± 8 g,,,
O=C(CCc1ccc(O)cc1)c1c(O)cc(O)cc1O[C@@H]1O[C@H](CO)[C@@H](O)[C@H](O)[C@H]1O [phlorizin],,,,,,,,,,dramatic reduction of hyperglycemia,the hyperglycemia disappears,short half-life
